Assay [1] concerns the target Dihydroorotate dehydrogenase (quinone), mitochondrial (Homo sapiens, UniProt Q02127). Put plainly: Inhibition of N-terminal His10-tagged human DHODH (Met30 to Arg396) expressed in Escherichia coli BL21 (DE3) using dihydroorotate as substrate measured every 30 secs for 6 mins by DCIP dye-based assay.
Assay [2] addresses T1, Dihydroorotate dehydrogenase (Plasmodium falciparum, UniProt Q54A96).
T1 sequence (Q54A96 whole entry): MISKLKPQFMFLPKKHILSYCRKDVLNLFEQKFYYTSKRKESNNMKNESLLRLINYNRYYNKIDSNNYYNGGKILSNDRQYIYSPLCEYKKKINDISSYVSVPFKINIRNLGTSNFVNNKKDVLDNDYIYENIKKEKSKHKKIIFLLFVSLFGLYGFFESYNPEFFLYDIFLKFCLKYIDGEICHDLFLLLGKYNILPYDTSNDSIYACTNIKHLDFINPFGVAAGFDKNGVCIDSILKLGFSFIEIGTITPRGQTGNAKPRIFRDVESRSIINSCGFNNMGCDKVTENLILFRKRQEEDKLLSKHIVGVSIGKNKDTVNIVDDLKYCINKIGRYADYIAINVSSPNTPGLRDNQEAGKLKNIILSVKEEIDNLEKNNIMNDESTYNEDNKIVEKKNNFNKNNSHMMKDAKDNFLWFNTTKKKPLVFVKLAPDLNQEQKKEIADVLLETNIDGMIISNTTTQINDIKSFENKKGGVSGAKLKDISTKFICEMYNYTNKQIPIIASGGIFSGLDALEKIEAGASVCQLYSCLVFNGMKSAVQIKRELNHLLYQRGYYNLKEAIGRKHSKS
Put plainly: Inhibition of Plasmodium falciparum DHODH (Phe158 to Ser569) expressed in Escherichia coli BL21 using dihydroorotate as substrate measured every 30 secs for 6 mins by DCIP dye-based assay.

Assay [3] relates to Plasmodium falciparum. Put plainly: microbe, parasite or virus in culture. Conditions: Dd2, 72 h.
Description: Antiplasmodial activity against chloroquine-resistant Plasmodium falciparum Dd2 infected in erythrocytes assessed as parasite growth inhibition after 72 hrs by SYBR green 1 dye-based fluorometric analysis
The test system of assay [4] is Plasmodium falciparum. Put plainly: microbe, parasite or virus in culture. The note with it: 3D7, 72 h.
Description: Antiplasmodial activity against chloroquine-sensitive Plasmodium falciparum 3D7 infected in erythrocytes assessed as parasite growth inhibition after 72 hrs by SYBR green 1 dye-based fluorometric analysis

Structures are written as SMILES.

Dihydroorotate dehydrogenase (quinone), mitochondrial, sequence (Q02127 whole entry): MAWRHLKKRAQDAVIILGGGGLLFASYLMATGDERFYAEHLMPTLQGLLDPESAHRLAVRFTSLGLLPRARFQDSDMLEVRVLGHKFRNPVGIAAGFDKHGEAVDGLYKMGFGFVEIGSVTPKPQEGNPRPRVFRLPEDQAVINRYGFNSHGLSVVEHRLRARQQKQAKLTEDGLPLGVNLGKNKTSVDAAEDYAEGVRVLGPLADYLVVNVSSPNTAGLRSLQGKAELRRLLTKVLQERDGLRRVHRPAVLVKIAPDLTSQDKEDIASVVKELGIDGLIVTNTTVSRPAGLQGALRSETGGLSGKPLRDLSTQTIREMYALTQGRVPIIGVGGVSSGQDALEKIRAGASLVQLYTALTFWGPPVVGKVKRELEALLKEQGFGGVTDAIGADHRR

As for `CCOC(=O)C1=C(Nc2ccccc2)SCC1=O`, the IC50 in assay [1] was above 50000 nM; in assay [2], above 50000 nM; in assay [3], 6560 nM; in assay [4], 5900 nM.
As to `CCCCOC(=O)C1=C(Nc2ccc(C)c(C)c2)SCC1=O`, the IC50 was above 50000 nM in assay [1], 2350 nM in assay [2], 889 nM in assay [3] and 745 nM in assay [4].
On to `Cc1ccc(NC2=C(C(=O)OCC3CC3)C(=O)CS2)cc1C`, for which the IC50 in assay [1] was above 50000 nM; in assay [2] it was 4160 nM; in assay [3], 2630 nM; in assay [4], 3530 nM.
For `Cc1ccc(NC2=C(C(N)=O)C(=O)CS2)cc1C`, in that order: above 50000 nM, above 50000 nM, above 20000 nM and above 20000 nM.
For `CCNC(=O)C1=C(Nc2ccc(C)c(C)c2)SCC1=O`, in that order: above 50000 nM, 39500 nM, 6260 nM and 8470 nM.
For `CCCNC(=O)C1=C(Nc2ccc(C)c(C)c2)SCC1=O`, in that order: 6300 nM, 4630 nM, 3930 nM and 3170 nM.
For the molecule `CCCCNC(=O)C1=C(Nc2ccc(C)c(C)c2)SCC1=O`, the IC50 in assay [1] was 4420 nM; in assay [2], 5730 nM; in assay [3], 2780 nM; in assay [4] it was 2700 nM.
As for `Cc1ccc(NC2=C(C(=O)NC3CC3)C(=O)CS2)cc1C`, the IC50 in assay [1] came to 4110 nM; in assay [2], 19100 nM; in assay [3], 5530 nM; in assay [4] it was 6620 nM.
For `Cc1ccc(NC2=C(C(=O)NCC3CC3)C(=O)CS2)cc1C`, in that order: 1840 nM, 3660 nM, 3500 nM and 3340 nM.
For `COC(=O)C1=C(Nc2ccc3ccccc3c2)SCC1=O`, in that order: above 50000 nM, 33 nM, 400 nM and 245 nM.
For `CCCOC(=O)C1=C(Nc2ccc3ccccc3c2)SCC1=O`, in that order: above 50000 nM, 951 nM, 1660 nM and 890 nM.
For `CCCCOC(=O)C1=C(Nc2ccc3ccccc3c2)SCC1=O`, the IC50 in assay [1] was above 50000 nM; in assay [2], 35600 nM; in assay [3], 5230 nM; in assay [4] it was 8380 nM.
For `CCNC(=O)C1=C(Nc2ccc3ccccc3c2)SCC1=O`, in that order: above 50000 nM, 12100 nM, 8490 nM and 11100 nM.
With `CCCNC(=O)C1=C(Nc2ccc3ccccc3c2)SCC1=O`, the IC50 in assay [1] is above 50000 nM; in assay [2], above 50000 nM; in assay [3], 3550 nM; in assay [4], 3480 nM.
Regarding `CCCCNC(=O)C1=C(Nc2ccc3ccccc3c2)SCC1=O`, the IC50 in assay [1] is above 50000 nM; in assay [2], above 50000 nM; in assay [3], 4030 nM; in assay [4] it was 5830 nM.
Regarding `O=C1CSC(Nc2ccc3ccccc3c2)=C1C(=O)NC1CC1`, the IC50 in assay [1] was above 50000 nM; in assay [2] it was 13200 nM; in assay [3], 7940 nM; in assay [4], 10200 nM.
As to `O=C1CSC(Nc2ccc3ccccc3c2)=C1C(=O)NCC1CC1`, the IC50 is above 50000 nM in assay [1], above 50000 nM in assay [2], above 20000 nM in assay [3] and 12400 nM in assay [4].
Consider `CCOC(=O)C1=C(Nc2ccc(C)c(C)c2)OCC1=O`, for which the IC50 is above 50000 nM in assay [1], 698 nM in assay [2], 486 nM in assay [3] and 372 nM in assay [4].
For `CCOC(=O)C1=C(Nc2cnc3ccccc3c2)OCC1=O`, in that order: above 50000 nM, 79 nM, 517 nM and 492 nM.
For `CCOC(=O)C1=C(Nc2ccc3c(c2)CCCC3)OCC1=O`, in that order: above 50000 nM, 18 nM, 76 nM and 57 nM.
On to `CCOC(=O)C1=C(Nc2ccc3c(c2)CCC3)OCC1=O`, for which the IC50 is above 50000 nM in assay [1], 65 nM in assay [2], 373 nM in assay [3] and 495 nM in assay [4].
For `CCOC(=O)C1=C(Nc2ccc(S(F)(F)(F)(F)F)cc2)OCC1=O`, in that order: above 50000 nM, 168 nM, 1060 nM and 680 nM.
For `CCOC(=O)C1=C(Nc2ccc(C(F)(F)F)cc2)OCC1=O`, in that order: above 50000 nM, 142 nM, 867 nM and 607 nM.
For `CCOC(=O)C1=C(Nc2ccc(C(F)(F)F)cc2)SCC1=O`, in that order: above 50000 nM, 367 nM, 1040 nM and 946 nM.
`CCOC(=O)C1=C(Nc2ccc(S(F)(F)(F)(F)F)cc2)SCC1=O`: the IC50 is above 50000 nM in assay [1], 559 nM in assay [2], 697 nM in assay [3] and 307 nM in assay [4].
For the molecule `CCOC(=O)C1=C(Nc2ccc(C(C)(C)C)cc2)SCC1=O`, the IC50 is above 50000 nM in assay [1], 227 nM in assay [2], 767 nM in assay [3] and 1520 nM in assay [4].
For `CCOC(=O)C1=C(Nc2ccc(Cl)c(C(F)(F)F)c2)SCC1=O`, in that order: above 50000 nM, 751 nM, 3150 nM and 2190 nM.
For `CCOC(=O)C1=C(Nc2ccc(Br)c(C(F)(F)F)c2)SCC1=O`, in that order: above 50000 nM, 1620 nM, 5540 nM and 5610 nM.
For `CCOC(=O)C1=C(Nc2cccc(C(F)(F)F)c2)SCC1=O`, in that order: above 50000 nM, above 50000 nM, 13600 nM and 14400 nM.
Consider `CCOC(=O)C1=C(Nc2cc(Cl)cc(Cl)c2)SCC1=O`, for which the IC50 is above 50000 nM in assay [1], 1190 nM in assay [2], 6000 nM in assay [3] and 4030 nM in assay [4].
For `CCOC(=O)C1=C(Nc2ccc(C)c(C)c2)SCC1=O`, in that order: above 50000 nM, 256 nM, 1320 nM and 1990 nM.
For `CCOC(=O)C1=C(Nc2ccc(C)c(F)c2)SCC1=O`, in that order: above 50000 nM, 536 nM, 3730 nM and 5050 nM.
Take `CCOC(=O)C1=C(Nc2ccc(Br)cc2C)SCC1=O`: the 50% inhibitory concentration (IC50) in assay [1] was above 50000 nM; in assay [2], above 50000 nM; in assay [3] it was above 20000 nM; in assay [4], above 20000 nM.
On to `CCOC(=O)C1=C(Nc2ccc3c(c2)CCCC3)SCC1=O`, for which the IC50 was 12000 nM in assay [1], 92 nM in assay [2], 315 nM in assay [3] and 169 nM in assay [4].
With `CCOC(=O)C1=C(Nc2cnc3ccccc3c2)SCC1=O`, the IC50 is above 50000 nM in assay [1], 351 nM in assay [2], 290 nM in assay [3] and 253 nM in assay [4].
For `CCOC(=O)C1=C(Nc2ccc3c(c2)CCC3)SCC1=O`, in that order: above 50000 nM, 851 nM, 1570 nM and 1400 nM.
For `CCOC(=O)C1=C(Nc2ccc3cc4ccccc4cc3c2)SCC1=O`, in that order: above 50000 nM, 197 nM, 1130 nM and 688 nM.
For `CCOC(=O)C1=C(Nc2ccc3c(c2)c2ccccc2n3CC)SCC1=O`, in that order: above 50000 nM, 392 nM, 1510 nM and 1230 nM.
`Cc1ccc(NC2=CC(=O)CS2)cc1C`: the IC50 in assay [1] was above 50000 nM; in assay [2], 11400 nM; in assay [3], 2500 nM; in assay [4], 1910 nM.
For `Cc1ccc(NC2=C(C(=O)O)C(=O)CS2)cc1C`, in that order: above 50000 nM, above 50000 nM, above 20000 nM and above 20000 nM.
For `O=C(O)C1=C(Nc2ccc3ccccc3c2)SCC1=O`, in that order: above 50000 nM, 1240 nM, 1050 nM and 1860 nM.
For `COC(=O)C1=C(Nc2ccc(C)c(C)c2)SCC1=O`, in that order: above 50000 nM, 1490 nM, 1270 nM and 1020 nM.
Regarding `CCCOC(=O)C1=C(Nc2ccc(C)c(C)c2)SCC1=O`, the IC50 is 11600 nM in assay [1], 4030 nM in assay [2], 1690 nM in assay [3] and 2110 nM in assay [4].

A word on the IC50: it is the concentration that inhibits the measured activity by half. The low end stands for inhibition by little substance, the high end for a need for much substance.

The values are drawn from ChEMBL document CHEMBL2429811, “Novel selective and potent inhibitors of malaria parasite dihydroorotate dehydrogenase: discovery and optimization of dihydrothiophenone derivatives” (J Med Chem, 2013).
